We go through ten molecules from patent US11696914B1 (priority 2019, dated 2023).

Data set [1] deals with HeLa cells.
For data set [2] the following is noted: mouse, microsomes, 1 h, pH 7.4.
The conditions of data set [3]: microsomes.
The conditions of data set [4]: mouse, microsomes.
The conditions of data set [5]: guinea pig, microsomes.
For data set [6] the following is noted: guinea pig, pH 7.4.
The conditions of data set [7]: human, microsomes.
For data set [8] the following is noted: human, microsomes, 1 h.
A short description of data set [9]: in vitro. The settings on record: guinea pig, microsomes.
The nature of data set [10]: in vitro. The settings on record: mouse, microsomes.
Data set [11] can be described thus: in vitro. The following applies: microsomes.
A short description of data set [12]: in vitro. The following applies: human, microsomes.
Data set [13] concerns Sudan virus. The settings on record: guinea pig, in vivo; cited from earlier work.
Data set [14] relates to SARS-CoV-2. Kind of data set: microbe, parasite or virus in culture. The data set is classed as cell-based. The following applies: Severe acute respiratory syndrome coronavirus 2, A549-ACE2, read-out: IC50 against SARS-CoV-2.
Data set [15] has as its system EBOV. The settings on record: human, in vivo; cited from earlier work.

Read-outs that look alike come from different tables or passages of the source.

Turning to `C[C@H]1[C@H](OC(=O)CCC(=O)O)O[C@@H]2O[C@@]3(C)CC[C@H]4[C@H](C)CC[C@@H]1[C@@]24OO3` [Artesunate], in [1], the “effect on toxicity of pyronaridine in the checkboard assay” value is reported as “ameliorates the toxicity of pyronaridine”.

As for `CCN(CC)CCCC(C)Nc1ccnc2cc(Cl)ccc12` (stereo not shown) [Chloroquine], in [2], the “Relative Peak Area/Abundance MLM” value is reported as 42.5%. Also, the Clint is listed as 13.0 in data set [3], 29.3 in data set [4], 10.5 in [5] and 6.9 in [7]. The “Dextromethorphan: compound, t1/2 normalized to dextromethorphan control” value in [3] was 19.1; in [4] it was 2.7; in [5], 42.1; in data set [7], 10.3. Moreover, the t1/2 in [3] (monkey) was 106.8 min; in data set [4], 47.3 min; in data set [5] it was 132.6 min; in data set [7], 201.4 min. For the same molecule, the “Relative Peak Area/Abundance GPLM” value in data set [6] amounted to 43.3%. Also, the “Relative Peak Area/Abundance HLM” value in data set [8] (pH 7.4) amounted to 56.7%.

For `COc1ccc2c(c1)[C@]13CCCC[C@@H]1[C@H](C2)N(C)CC3` [Dextromethorphan], the half-life in [9] (Dextromethorphan t1/2) turned out to be 3.2 min; in data set [9] (t1/2 of CYP probe controls), 2.9 min; in data set [10] (Dextromethorphan t1/2) it was 16.2 min; in data set [10] (t1/2 of CYP probe controls), 13.2 min; in [11] (monkey) it was 6.69 min; in data set [11] (non-human primate), 5.7 min. In addition, the half-life in data set [12] (Dextromethorphan t1/2) amounted to 19.7 min; in [12] (t1/2 of CYP probe controls), 14.8 min.

Regarding `O=C(O)Cc1ccccc1Nc1c(Cl)cccc1Cl` [Diclofenac], the “t1/2 of CYP probe controls” value in data set [4] was found to be 39.6 min. In [11] (monkey), the half-life amounted to 43.1 min.

On to `NC(=O)c1nc(F)c[nH]c1=O` [Favipiravir], for which the “survival rates in Sudan virus-infected guinea pigs” value in data set [13] is recorded as 83-100%.

Regarding `COc1ccc2nc3cc(Cl)ccc3c(N)c2n1` [M11], the “Relative Peak Area/Abundance HLM” value in data set [8] was 0.2%.

Turning to `Cc1ncc2n1-c1ccc(Cl)cc1C(c1ccccc1F)=NC2` [Midazolam], the half-life in data set [9] (t1/2 of CYP probe controls) worked out at 3.75 min; in [10] (t1/2 of CYP probe controls), 1.68 min; in [11] (monkey), 4.3 min; in [12] (t1/2 of CYP probe controls), 2.35 min.

Take `COc1ccc2[nH]c([S+]([O-])Cc3ncc(C)c(OC)c3C)nc2c1` (stereo not shown) [Omeprazole]: the half-life worked out at 34 min in [9] (t1/2 of CYP probe controls), 25.5 min in [11] (monkey) and 23.5 min in data set [12] (t1/2 of CYP probe controls).

In the case of `CCC(CC)COC(=O)[C@H](C)N[P@](=O)(OC[C@H]1O[C@@](C#N)(c2ccc3c(N)ncnn23)[C@H](O)[C@@H]1O)Oc1ccccc1` [Remdesivir], the IC50 in data set [14] was approximately 147 nM.

B1: mAb114 (antibody, chains of the INN, looked up, V domains shown)
VH: EVQLVESGGGLIQPGGSLRLSCAASGFALRMYDMHWVRQTIDKRLEWVSAVGPSGDTTYADSVKGRFAVSRENAKNSLSLQMNSLTAGDTAIYYCVRSDRGVAGLFDSWGQGILVTVSS
VL: DIQMTQSPSSLSASVGDRITITCRASQAFDNYVAWYQQRPGKVPKLLISAASALHAGVPSRFSGSGSGTHFTLTISSLQPEDVATYYCQNYNSAPLTFGGGTKVEIK
On to B1, for which, in [15], the “overall survival rate in EBOV patients” value was 66%.
